According to US5420128A, “Pyrimidine derivatives, method of manufacturing the same, and androgen inhibitor” (Otsuka Pharmaceutical Co., Ltd., priority 1990, dated 1995):

Each compound was assayed against T1, rat prostate androgen receptor (Rattus norvegicus, UniProt P15207) (assay: inhibitory activity on binding of ^3 H-mibolerone on rat prostate androgen receptor). Conditions: ^3 H-mibolerone 1 nM, triamcinolone acetonide 5 μM, rat ventral prostate cytosol, 20 hours at 0° C.; read-out: Inhibitory activity on mibolerone specific binding [IC50 (M)].
T1 construct: the supernatant was obtained as cytoplasm fraction; from tissue; host or cells: cytosol (105000×g supernatant) of rat ventral prostate, 24 hours after castration
T1 sequence (P15207 1-902): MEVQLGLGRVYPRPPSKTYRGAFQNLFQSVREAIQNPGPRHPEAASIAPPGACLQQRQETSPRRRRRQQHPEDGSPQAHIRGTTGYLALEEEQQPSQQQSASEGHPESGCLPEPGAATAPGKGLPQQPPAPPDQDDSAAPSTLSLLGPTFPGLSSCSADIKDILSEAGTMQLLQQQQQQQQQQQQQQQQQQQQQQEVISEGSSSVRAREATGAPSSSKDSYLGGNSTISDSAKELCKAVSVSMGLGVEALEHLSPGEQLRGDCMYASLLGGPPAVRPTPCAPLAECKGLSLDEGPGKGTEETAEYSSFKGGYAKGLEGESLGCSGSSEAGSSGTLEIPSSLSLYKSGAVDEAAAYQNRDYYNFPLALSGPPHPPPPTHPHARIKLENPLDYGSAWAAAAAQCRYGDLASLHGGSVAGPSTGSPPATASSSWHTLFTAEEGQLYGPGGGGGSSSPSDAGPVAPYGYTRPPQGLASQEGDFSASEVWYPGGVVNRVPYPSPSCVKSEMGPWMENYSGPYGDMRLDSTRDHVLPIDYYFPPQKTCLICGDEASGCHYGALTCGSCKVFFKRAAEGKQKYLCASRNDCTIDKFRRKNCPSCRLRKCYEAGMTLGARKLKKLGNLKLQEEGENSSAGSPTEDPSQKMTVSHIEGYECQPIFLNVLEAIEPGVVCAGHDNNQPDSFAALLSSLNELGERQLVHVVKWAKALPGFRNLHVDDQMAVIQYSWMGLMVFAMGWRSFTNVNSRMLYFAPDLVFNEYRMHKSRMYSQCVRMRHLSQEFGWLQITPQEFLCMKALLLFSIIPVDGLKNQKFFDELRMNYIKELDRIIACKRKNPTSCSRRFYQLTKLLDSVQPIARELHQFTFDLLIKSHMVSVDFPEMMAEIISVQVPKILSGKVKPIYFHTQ
Experimental: B. Measurement of inhibitory activity on binding of ^3 H-mibolerone on rat prostate androgen receptor
(1) Preparation of cytosol from rat prostate
The rat was sacrificed 24 hours after castration, and the ventral lobe of prostate was removed, and was gently homogenized, in ice-cooling water bath, at first by using Polytron and then using Potter type homogenizer, in three-fold amount of buffer solution A (1.5 mM EDTA, 2 mM dithiothreitol, 10 mM molybdate sodium, 10 % by volume of glycerol, 10 mM NaF, 25 mM phosphate sodium, pH 7.2). The obtained homogenate was filtrated through double gauze, and centrifuged at 105000×g for 60 minutes at 4° C., and the supernatant was obtained as cytoplasm fraction.
(2) Measurement of specific binding of ^3 H-mibolerone on prostate cytoplasm androgen receptor
To the cytoplasm fraction obtained in (1), ^3 H-mibolerone (87.0 Ci/mmol) was added, so that a final concentration is adjusted to 1 nM, and at the same time, in order to inhibit binding of ^3 H-mibolerone to progestin receptor, triamsinolone acetonide was added to a final concentration of 5 μM, and the final volume was adjusted to 0.4 ml with buffer solution A, and the reaction mixture was incubated for 20 hours at 0° C. After incubation, 0.5 ml of 60% hydroxylapatite slurry (washed and equilibrate with a buffer solution B: 10 mM NaH2 P04, 20 mM tris-hydrochloric acid, pH 7.2) was added, and incubated for 10 minutes at 0° C., the solution was transferred onto a glass fiber filter, and washed five times with 5 ml portions of buffer solution B containing 0.1% (weight/volume) of Triton X-100, to remove free ^3 H-mibolerone. This glass fiber was transferred into vial, and 10 ml of aquasol-2 was added, and the radioactivity was measured, and the total binding amount of ^3 H-mibolerone on prostate cytoplasm androgen receptor was determined.
The nonspecific binding amount was determined similarly by adding an unlabeled 5α-DHT in the reaction solution to a final concentration of 1 μM. The difference between the total binding amount and nonspecific binding amount was determined as the specific binding amount on the androgen receptor.
(3) Inhibitory activity of sample compounds on ^3 H-mibolerone specific binding
The compounds obtained in the experiments were added simultaneously with ^3 H-mibolerone at different concentrations to incubate same as in (2), and the specific binding amount of 3H-mibolerone on androgen receptor was determined. Comparing this value with the value obtained in (2), the IC50 value of inhibitory activity of the compounds on ^3 H-mibolerone specific binding was determined.

Compound | IC50
7-Hydroxy-6-ethoxycarbonylmethyl-3-(4-phenylthiophenyl)pyrazolo[1,5-a]pyrimidine [Example 34] | 2.9e-07 M
CCc1cc(O)n2ncc(-c3ccc(Sc4ccccc4)cc3)c2n1 [Example 6, 7-Hydroxy-5-ethyl-3-(4-phenylthiophenyl)pyrazolo[1,5-a]pyrimidine] | 9e-07 M
CC(C)c1cc(O)n2ncc(-c3ccc(Sc4ccccc4)cc3)c2n1 [Example 7, 7-Hydroxy-5-isopropyl-3-(4-phenylthiophenyl)pyrazolo[1,5-a]pyrimidine] | 1.3e-05 M
Oc1cc(C2CC2)nc2c(-c3ccc(Sc4ccccc4)cc3)cnn12 [Example 8, 7-Hydroxy-5-cyclopropyl-3-(4-phenylthiophenyl)pyrazolo[1,5-a]pyrimidine] | 1.7e-06 M
Oc1cc(CCl)nc2c(-c3ccc(Sc4ccccc4)cc3)cnn12 [Example 9, 7-Hydroxy-5-chloromethyl-3-(4-phenylthiophenyl)pyrazolo[1,5-a]pyrimidine] | 3.1e-05 M
Oc1cc(-c2ccccc2)nc2c(-c3ccc(Sc4ccccc4)cc3)cnn12 [Example 10, 7-Hydroxy-5-phenyl-3-(4-phenylthiophenyl)pyrazolo[1,5-a]pyrimidine] | > 5e-06 M
Oc1c2c(nc3c(-c4ccc(Sc5ccccc5)cc4)cnn13)CCC2 [Example 11, 5H-6,7-Dihydro-8-hydroxy-3-(4-phenylthiophenyl)cyclopenta[d]pyrazolo[1,5-a]pyrimidine] | 4.2e-07 M
Oc1c2c(nc3c(-c4ccc(Sc5ccccc5)cc4)cnn13)CCCC2 [Example 12, 9-Hydroxy-3-(4-phenylthiophenyl)-5,6,7,8-tetrahydropyrazolo[5,1-b]quinazoline] | > 5e-06 M
Oc1cc(C(F)(F)F)nc2c(-c3ccc(Sc4ccccc4)cc3)cnn12 [Example 13, 7-Hydroxy-5-trifluoromethyl-3-(4-phenylthiophenyl)pyrazolo[1,5-a]pyrimidine] | 2e-06 M
Cc1nn2c(O)ccnc2c1-c1ccc(Sc2ccccc2)cc1 [Example 18, 7-Hydroxy-2-methyl-3-(4-phenylthiophenyl)pyrazolo[1,5-a]pyrimidine] | 1.2e-06 M
COCc1nn2c(O)ccnc2c1-c1ccc(Sc2ccccc2)cc1 [Example 19, 7-Hydroxy-2-methoxymethyl-3-(4-phenylthiophenyl)pyrazolo[1,5-a]pyrimidine] | > 5e-06 M
Oc1c(CCc2ccccc2)cnc2c(-c3ccc(Sc4ccccc4)cc3)cnn12 [Example 28, 7-Hydroxy-6-phenethyl-3-(4-phenylthiophenyl)pyrazolo[1,5-a]pyrimidine] | > 5e-06 M
COc1ccccc1Cc1cnc2c(-c3ccc(Sc4ccccc4)cc3)cnn2c1O [Example 30, 7-Hydroxy-6-(2-methoxyphenylmethyl)-3-(4-phenylthiophenyl)pyrazolo[1,5-a]pyrimidine] | 3.2e-07 M
Cc1nc2c(-c3ccc(Sc4ccccc4)cc3)cnn2c(O)c1Cl [Example 37, 7-hydroxy-6-chloro-5-methyl-3-(4-phenylthiophenyl)pyrazolo[1,5-a]pyrimidine] | 5.8e-07 M
O=C(Nc1ccccc1)c1cnc2c(-c3ccc(Sc4ccccc4)cc3)cnn2c1O [Example 42, 7-Hydroxy-6-(N-phenylcarbamoyl)-3-(4-phenylthiophenyl)pyrazolo[1,5-a]pyrimidine] | 3e-06 M
O=C(Nc1cc(Cl)c(Cl)c(Cl)c1)c1cnc2c(-c3ccc(Sc4ccccc4)cc3)cnn2c1O [Example 45, 7-Hydroxy-3-(4-phenylthiophenyl)-6-(N-3,4,5-trichlorophenyl)carbamoylpyrazolo[1,5-a]pyrimidine] | 4e-07 M
c1ccc(Sc2ccc(-c3cnn4cccnc34)cc2)cc1 [Example 49, 3-(4-phenylthiophenyl)pyrazolo[1,5-a]pyrimidine] | > 5e-06 M
Cc1ccc(-c2cnc3c(-c4ccc(Sc5ccccc5)cc4)cnn3c2O)cc1 [Example 51, 7-Hydroxy-6-(4-methylphenyl)-3-(4-phenylthiophenyl)pyrazolo[1,5-a]pyrimidin] | 3.4e-07 M

Further compounds by falling IC50, results first:

IC50 | Compound
3e-07 M | COc1ccccc1-c1cnc2c(-c3ccc(Sc4ccccc4)cc3)cnn2c1O [Example 53, 7-Hydroxy-6-(2-methoxyphenyl)-3-(4-phenylthiophenyl)pyrazolo[1,5-a]pyrimidine]
2.8e-07 M | CCOC(=O)Cc1cnc2c(-c3ccc(Sc4ccccc4)cc3)cnn2c1O [Example 33, 7-Hydroxy-6-ethoxycarbonylmethyl-3-(4-phenylthiophenyl)pyrazolo[1,5-a]pyrimidine]
2.3e-07 M | COc1ccc(-c2cnc3c(-c4ccc(Sc5ccccc5)cc4)cnn3c2O)cc1 [Example 52, 7-Hydroxy-6-(4-methoxyphenyl)-3-(4-phenylthiophenyl)pyrazolo[1,5-a]pyrimidine]
2e-07 M | CCOC(=O)c1cnc2c(-c3ccc(Sc4ccccc4)c(OC)c3)cnn2c1O [Example 14, 7-Hydroxy-6-ethoxycarbonyl-3-(3-methoxy-4-phenylthiophenyl)pyrazolo[1,5-a]pyrimidine]
1.8e-07 M | CC(C)c1cnc2c(-c3ccc(Sc4ccccc4)cc3)cnn2c1O [Example 26, 7-Hydroxy-6-isopropyl-3-(4-phenylthiophenyl)pyrazolo[1,5-a]pyrimidine]
1.7e-07 M | CC(C)(C)NC(=O)c1cnc2c(-c3ccc(Sc4ccccc4)cc3)cnn2c1O [Example 46, 7-Hydroxy-3-(4-phenylthiophenyl)-6-(N-t-butyl)carbamoylpyrazolo[1,5-a]pyrimidine]
1.65e-07 M | COc1cnc2c(-c3ccc(Sc4ccccc4)cc3)cnn2c1O [Example 21, 7-Hydroxy-6-methoxy-3-(4-phenylthiophenyl)pyrazolo[1,5-a]pyrimidine]
1.6e-07 M | CCc1cnc2c(-c3ccc(Sc4ccccc4)cc3)cnn2c1O [Example 25, 7-Hydroxy-6-ethyl-3-(4-phenylthiophenyl)pyrazolo[1,5-a]pyrimidine]
1.5e-07 M | COc1cc(-c2cnn3c(O)ccnc23)ccc1Sc1ccccc1 [Example 15, 7-Hydroxy-3-(3-methoxy-4-penylthiophenyl)pyrazolo[1,5-a]pyrimidine]
1.3e-07 M | Oc1c(C2CCCCC2)cnc2c(-c3ccc(Sc4ccccc4)cc3)cnn12 [Example 27, 7-Hydroxy-6-cyclohexyl-3-(4-phenylthiophenyl)pyrazolo[1,5-a]pyrimidine]
1.3e-07 M | Oc1c(Cl)cnc2c(-c3ccc(Sc4ccccc4)cc3)cnn12 [Example 36, 7-Hydroxy-6-chloro-3-(4-phenylthiophenyl)pyrazolo[1,5-a]pyrimidine]
1.3e-07 M | O=C(O)CCc1cnc2c(-c3ccc(Sc4ccccc4)cc3)cnn2c1O [Example 39, 7-Hydroxy-6-carboxyethyl-3-(4-phenylthiophenyl)pyrazolo[1,5-a]pyrimidine]
8.8e-08 M | Oc1c(Br)cnc2c(-c3ccc(Sc4ccccc4)cc3)cnn12 [Example 35, 7-Hydroxy-6-bromo-3-(4-phenylthiophenyl)pyrazolo[1,5a]pyrimidine]
7.7e-08 M | COc1cc(-c2cnn3c(O)c(C(N)=O)cnc23)ccc1Sc1ccccc1 [Example 44, 6-Carbamoyl-7-hydroxy-3-(3-methoxy-4-phenylthiophenyl)pyrazolo[1,5-a]pyrimidine]
7.6e-08 M | NC(=O)c1cnc2c(-c3ccc(Sc4ccccc4)cc3)cnn2c1O [Example 43]
6.4e-08 M | Cc1cnc2c(-c3ccc(Sc4ccccc4)cc3)cnn2c1O [Example 24, 7-Hydroxy-6-methyl-3-(4-phenylthiophenyl)pyrazolo[1,5-a]pyrimidine]
5.8e-08 M | Oc1c(-c2ccccc2)cnc2c(-c3ccc(Sc4ccccc4)cc3)cnn12 [Example 23, 7-Hydroxy-6-phenyl-3-(4-phenylthiophenyl)pyrazolo[1,5-a]pyrimidine]
5.8e-08 M | O=C(O)c1cnc2c(-c3ccc(Sc4ccccc4)cc3)cnn2c1O [Example 38, 7-Hydroxy-6-carboxy-3-(4-phenylthiophenyl)pyrazolo[1,5-a]pyrimidine]
5.2e-08 M | Oc1c(F)cnc2c(-c3ccc(Sc4ccccc4)cc3)cnn12 [Example 22]
5e-08 M | N#Cc1cnc2c(-c3ccc(Sc4ccccc4)cc3)cnn2c1O [Example 47, 7-Hydroxy-6-cyano-3,(4-phenylthiophenyl)pyrazolo[1,5-a]pyrimidine]
2.5e-08 M | Oc1c(Cc2ccccc2)cnc2c(-c3ccc(Sc4ccccc4)cc3)cnn12 [Example 29, 7-Hydroxy-6-benzyl-3-(4-phenylthiophenyl)prazolo[1,5-a]pyrimidine]
2.2e-08 M | O=C(O)Cc1cnc2c(-c3ccc(Sc4ccccc4)cc3)cnn2c1O [Example 40, 7-Hydroxy-6-carboxymethyl-3-(4-phenylthiophenyl)pyrazolo[1,5-a]pyrimidine]
